# Assay results published in US20170042193A1, “Pet Food Compositions Having Antimicrobial Activity” (priority 2010, published 2017).
# Read-outs that look alike come from different tables or passages of the source.
# Legend:
# Type in all cases: cell-based
# [1] = system: Salmonella (S. aarhus, S. muenster E1 & S. worthington)
# Protocol: The kibble diffusion test has similar principles as the disk diffusion method. […] […] Efficacy of the AMI was validated by measuring how closely the Salmonella cultures grew with respect to the saturated kibbles.
# Commercial canine and feline adult pet food compositions in the form of kibbles were coated with potential AMIs. […] After incubation overnight at 30° C., plates were analyzed for presence of clear zones around the kibbles.
# [2] = system: Salmonella (S. aarhus, S. muenster E1 and S. worthington); design: key to Salmonella growth or inhibition (MIC test): −: negative sign means inhibition; +: positive sign denotes growth
# Protocol: The minimum inhibitory concentration (MIC) of an antimicrobial ingredient is defined as the maximum dilution of the product that will still inhibit the growth of Salmonella. Serial dilutions (0-3%, except for oregano 0-0.3%) were made of the AMI in bacterial growth media and poured in test tubes. The test organisms (S. aarhus, S. muenster E1 and S. worthington) were then added to the dilutions of the AMI ingredients to a final concentration of 10^6 or 10^3 cfu/g, incubated overnight at 30° C., and scored for growth by turbidity or plate counts.
# Minimum Inhibitory Concentration was conducted for 10^3 and 10^6 cfu/g Salmonella. Results reported as negative sign means inhibition, while positive sign denotes growth.
# [3] = system: Salmonella (S. aarhus, S. muenster E1 & S. worthington); remark: listed apart in the source
# Source text: This test is typically used for antibiotic sensitivity in bacteria and was adapted to measure Salmonella growth suppression by ingredients with potential antimicrobial (AMI) activity. Discs of filter paper, approximately 5 mm in diameter, were soaked in an AMI at 1%, 2%, and 3%, except for oregano, which was soaked at 0.1%, 0.2% and 0.4% solution and placed on a Petri dish with standard methods agar with tetraphenyltetrazolium (TTC) that has been smeared with a standardized suspension of Salmonella (S. aarhus, S. muenster E1 & S. worthington). Efficacy of the AMI was validated by measuring how closely the Salmonella cultures grew with respect to the saturated filter paper.
# Ingredients were screened for antimicrobial activity using the Disc Diffusion Test. Solutions of 1%, 2%, and 3% were prepared for each of these ingredients, except for oregano, which was prepared at 0.1%, 0.2%, and 0.4%. Soaking of the disks, placing them on a Standard Methods agar plate with TTC smeared with Salmonella and overnight incubation were done as discussed above. Efficacy of these ingredients was determined by measuring the clear zones (mm) around the disks (Table 2).
smiles,measurement,setting,value
"O=P(O)(O)O [Inorganic Acid (Phosphoric acid), Phosphoric Acid]","inhibition of Salmonella, clear zone around the kibbles","[1]; coated kibbles, overnight at 30° C.",inhibited Salmonella
same,"Zone of Inhibition-Diameter, Mean","[1]; kibble coated, 3%",8 mm
same,"Zone of Inhibition-Diameter, REP I Plate 1","[1]; kibble coated, 3%",9 mm
same,"Zone of Inhibition-Diameter, REP I Plate 2","[1]; kibble coated, 3%",7 mm
same,"Zone of Inhibition-Diameter, REP II Plate 1","[1]; kibble coated, 3%",7 mm
same,"Zone of Inhibition-Diameter, REP II Plate 2","[1]; kibble coated, 3%",9 mm
same,"Zone of Inhibition-Diameter, REP III Plate 1","[1]; kibble coated, 3%",9 mm
same,"Zone of Inhibition-Diameter, REP III Plate 2","[1]; kibble coated, 3%",7 mm
same,Salmonella growth or inhibition (MIC test),"[2]; 10^3 cfu/g Salmonella, antimicrobial level 0.03%",+
same,Salmonella growth or inhibition (MIC test),"[2]; 10^3 cfu/g Salmonella, antimicrobial level 0.15%",+
same,Salmonella growth or inhibition (MIC test),"[2]; 10^3 cfu/g Salmonella, antimicrobial level 0.3%",+
same,Salmonella growth or inhibition (MIC test),"[2]; 10^3 cfu/g Salmonella, antimicrobial level 0.9%",−
same,Salmonella growth or inhibition (MIC test),"[2]; 10^3 cfu/g Salmonella, antimicrobial level 1.5%",−
same,Salmonella growth or inhibition (MIC test),"[2]; 10^3 cfu/g Salmonella, antimicrobial level 2.1%",−
same,Salmonella growth or inhibition (MIC test),"[2]; 10^3 cfu/g Salmonella, antimicrobial level 3%",−
same,Salmonella growth or inhibition (MIC test),"[2]; 10^3 cfu/g Salmonella, antimicrobial level […]",−
same,Salmonella growth or inhibition (MIC test),"[2]; 10^6 cfu/g Salmonella, antimicrobial level 0.03%",+
same,Salmonella growth or inhibition (MIC test),"[2]; 10^6 cfu/g Salmonella, antimicrobial level 0.15%",+
same,Salmonella growth or inhibition (MIC test),"[2]; 10^6 cfu/g Salmonella, antimicrobial level 0.3%",+
same,Salmonella growth or inhibition (MIC test),"[2]; 10^6 cfu/g Salmonella, antimicrobial level 0.9%",−
same,Salmonella growth or inhibition (MIC test),"[2]; 10^6 cfu/g Salmonella, antimicrobial level 1.5%",−
same,Salmonella growth or inhibition (MIC test),"[2]; 10^6 cfu/g Salmonella, antimicrobial level 2.1%",−
same,Salmonella growth or inhibition (MIC test),"[2]; 10^6 cfu/g Salmonella, antimicrobial level 3%",−
same,Salmonella growth or inhibition (MIC test),"[2]; 10^6 cfu/g Salmonella, antimicrobial level […]",−
same,"clear zone around disk, Partial",[3]; R 1 (*3 replicates),9.33 mm
same,"clear zone around disk, Total",[3]; R 1 (*3 replicates),16.67 mm
same,"clear zone around disk, Partial",[3]; R 2,14.33 mm
same,"clear zone around disk, Total",[3]; R 2,24.0 mm
same,"clear zone around disk, Partial",[3]; R 3,21.0 mm
same,"clear zone around disk, Total",[3]; R 3,28.33 mm
same,"Antimicrobial activity against Salmonella, decreasing order","[3]; order printed: Phosphoric acid>Phenols, pH 4.25-4.85>Oleoresin Oregano>92% Sodium Lactate and 6% Sodium Diacetate>Phenols, pH 4.8-6.0",Antimicrobial activity against Salmonella was observed
